The kinase profiling compilation of Christmann-Franck et al. (2016)
Where “and” joins values, the source holds several entries; their conditions need not be identical. Equal entries are not always repeated.

These compounds were tested against PTK6 (human) (UniProt Q13882) (assay: radiometric filter-binding kinase assay, Kinase HotSpot). Details: compound 0.5 µM; ATP 10 µM.
Chain of PTK6 (human) (Q13882 whole entry, looked up): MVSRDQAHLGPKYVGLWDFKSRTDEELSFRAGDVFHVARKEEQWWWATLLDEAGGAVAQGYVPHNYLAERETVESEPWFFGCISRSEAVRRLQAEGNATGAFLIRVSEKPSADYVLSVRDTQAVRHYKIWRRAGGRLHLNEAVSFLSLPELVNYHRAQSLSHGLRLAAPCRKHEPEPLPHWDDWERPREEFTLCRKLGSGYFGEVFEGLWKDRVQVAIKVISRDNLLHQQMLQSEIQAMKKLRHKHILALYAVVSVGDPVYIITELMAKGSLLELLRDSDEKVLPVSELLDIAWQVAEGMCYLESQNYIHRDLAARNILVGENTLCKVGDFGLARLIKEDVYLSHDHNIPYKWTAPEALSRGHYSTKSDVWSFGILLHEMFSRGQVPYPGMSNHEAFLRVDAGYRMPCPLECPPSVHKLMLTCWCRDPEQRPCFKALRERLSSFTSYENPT

| SMILES | residual activity [%] |
| --- | --- |
| Cc1cc(Nc2nc(-c3ccccc3)nc3ccccc23)n[nH]1 | 61.6 |
| CCOc1cc2ncnc(Nc3cccc(Br)c3)c2cc1OCC | 27.7 |
| O=c1[nH]c2ccccc2n1C1CCN(Cc2ccc(-c3nc4cc5[nH]cnc5cc4nc3-c3ccccc3)cc2)CC1 | 91.1 |
| N#CCCc1ccc2c(c1)-c1[nH]c3ccc([N+](=O)[O-])cc3c1CC(=O)N2 | 94.6 |
| O=C(c1ccccc1)c1ccc(N2CCOCC2)cc1O | 98.2 |
| c1ccc(-c2cnc(Nc3ccc(OCCN4CCCC4)cc3)s2)cc1 | 80.8 |

These compounds were tested against BRAF (human) (UniProt P15056) in the same assay as above. Details: compound 0.5 µM; ATP 10 µM.
Chain of BRAF (human) (P15056 whole entry, looked up): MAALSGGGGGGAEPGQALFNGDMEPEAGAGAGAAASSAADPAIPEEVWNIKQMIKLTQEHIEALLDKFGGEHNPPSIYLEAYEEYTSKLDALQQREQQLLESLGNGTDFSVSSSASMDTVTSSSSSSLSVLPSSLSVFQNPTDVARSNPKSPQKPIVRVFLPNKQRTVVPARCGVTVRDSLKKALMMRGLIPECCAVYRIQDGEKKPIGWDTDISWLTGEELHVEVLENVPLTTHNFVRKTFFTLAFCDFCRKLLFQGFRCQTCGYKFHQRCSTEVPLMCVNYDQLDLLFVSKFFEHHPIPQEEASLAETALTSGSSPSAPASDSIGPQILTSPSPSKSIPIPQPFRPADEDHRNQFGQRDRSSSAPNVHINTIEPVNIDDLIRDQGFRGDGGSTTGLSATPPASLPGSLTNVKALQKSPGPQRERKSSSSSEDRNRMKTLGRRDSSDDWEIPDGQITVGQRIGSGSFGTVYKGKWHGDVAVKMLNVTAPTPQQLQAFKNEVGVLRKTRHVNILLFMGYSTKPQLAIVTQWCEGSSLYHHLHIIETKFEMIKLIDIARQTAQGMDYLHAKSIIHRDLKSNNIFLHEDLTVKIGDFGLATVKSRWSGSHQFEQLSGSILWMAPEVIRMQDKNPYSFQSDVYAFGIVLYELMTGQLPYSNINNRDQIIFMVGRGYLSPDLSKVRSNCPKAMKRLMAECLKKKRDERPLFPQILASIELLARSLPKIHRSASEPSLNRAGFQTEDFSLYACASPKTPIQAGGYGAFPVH

| SMILES | residual activity [%] |
| --- | --- |
| Cc1cc(Nc2nc(-c3ccccc3)nc3ccccc23)n[nH]1 | 99.5 |
| CCOc1cc2ncnc(Nc3cccc(Br)c3)c2cc1OCC | 97.1 |
| O=c1[nH]c2ccccc2n1C1CCN(Cc2ccc(-c3nc4cc5[nH]cnc5cc4nc3-c3ccccc3)cc2)CC1 | 101 |
| N#CCCc1ccc2c(c1)-c1[nH]c3ccc([N+](=O)[O-])cc3c1CC(=O)N2 | 99.3 |

These compounds were tested against CHEK2 (human) (UniProt O96017) in the same assay as above. Details: compound 0.5 µM; ATP 10 µM.
Chain of CHEK2 (human) (O96017 whole entry, looked up): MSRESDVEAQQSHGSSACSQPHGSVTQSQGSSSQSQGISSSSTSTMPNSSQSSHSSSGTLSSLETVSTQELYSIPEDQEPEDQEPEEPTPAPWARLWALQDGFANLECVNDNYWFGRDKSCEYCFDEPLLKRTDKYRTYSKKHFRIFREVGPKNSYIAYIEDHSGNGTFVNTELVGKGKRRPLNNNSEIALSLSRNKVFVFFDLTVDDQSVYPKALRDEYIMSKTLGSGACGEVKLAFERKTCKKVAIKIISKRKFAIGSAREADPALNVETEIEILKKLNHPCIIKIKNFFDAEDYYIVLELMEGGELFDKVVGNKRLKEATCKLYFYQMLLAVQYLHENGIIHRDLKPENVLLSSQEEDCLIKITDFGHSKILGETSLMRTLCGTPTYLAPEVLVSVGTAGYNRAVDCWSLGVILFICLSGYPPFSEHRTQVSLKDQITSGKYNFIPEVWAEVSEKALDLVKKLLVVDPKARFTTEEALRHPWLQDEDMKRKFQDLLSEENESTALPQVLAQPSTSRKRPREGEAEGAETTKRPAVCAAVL

| SMILES | residual activity [%] |
| --- | --- |
| Cc1cc(Nc2nc(-c3ccccc3)nc3ccccc23)n[nH]1 | 31.3 |
| CCOc1cc2ncnc(Nc3cccc(Br)c3)c2cc1OCC | 92 |
| O=c1[nH]c2ccccc2n1C1CCN(Cc2ccc(-c3nc4cc5[nH]cnc5cc4nc3-c3ccccc3)cc2)CC1 | 100 |
| N#CCCc1ccc2c(c1)-c1[nH]c3ccc([N+](=O)[O-])cc3c1CC(=O)N2 | 12.6 |
| O=C(c1ccccc1)c1ccc(N2CCOCC2)cc1O | 106 |
| c1ccc(-c2cnc(Nc3ccc(OCCN4CCCC4)cc3)s2)cc1 | 99.4 |

These compounds were tested against EPHA7 (human) (UniProt Q15375) in the same assay as above. Details: compound 0.5 µM; ATP 10 µM.
Chain of EPHA7 (human) (Q15375 whole entry, looked up): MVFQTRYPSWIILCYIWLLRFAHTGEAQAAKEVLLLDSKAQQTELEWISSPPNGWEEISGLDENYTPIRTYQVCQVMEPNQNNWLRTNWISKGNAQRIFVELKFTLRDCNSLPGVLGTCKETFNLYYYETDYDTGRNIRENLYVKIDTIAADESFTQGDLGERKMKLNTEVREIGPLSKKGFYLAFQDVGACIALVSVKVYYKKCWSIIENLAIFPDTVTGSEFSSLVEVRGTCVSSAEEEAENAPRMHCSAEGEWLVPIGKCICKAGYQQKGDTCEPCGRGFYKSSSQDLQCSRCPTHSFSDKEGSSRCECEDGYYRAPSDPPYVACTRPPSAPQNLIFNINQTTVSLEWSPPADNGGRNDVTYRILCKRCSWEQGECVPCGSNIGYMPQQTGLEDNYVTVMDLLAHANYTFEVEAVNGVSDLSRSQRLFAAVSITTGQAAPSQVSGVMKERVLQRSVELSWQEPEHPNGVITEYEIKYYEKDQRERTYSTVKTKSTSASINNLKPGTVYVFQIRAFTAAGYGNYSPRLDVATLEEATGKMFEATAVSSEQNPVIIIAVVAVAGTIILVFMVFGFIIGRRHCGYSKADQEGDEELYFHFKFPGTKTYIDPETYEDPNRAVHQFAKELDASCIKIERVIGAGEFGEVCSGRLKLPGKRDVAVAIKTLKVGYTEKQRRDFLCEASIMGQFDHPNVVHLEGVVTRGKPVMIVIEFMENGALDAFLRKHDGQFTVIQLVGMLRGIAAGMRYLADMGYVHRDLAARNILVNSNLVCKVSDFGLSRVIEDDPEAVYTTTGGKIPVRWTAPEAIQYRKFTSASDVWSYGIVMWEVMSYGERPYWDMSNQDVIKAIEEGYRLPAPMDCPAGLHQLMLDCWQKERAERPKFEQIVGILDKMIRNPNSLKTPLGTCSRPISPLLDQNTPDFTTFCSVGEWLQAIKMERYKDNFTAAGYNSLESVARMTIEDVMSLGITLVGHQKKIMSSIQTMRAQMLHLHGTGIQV

| SMILES | residual activity [%] |
| --- | --- |
| Cc1cc(Nc2nc(-c3ccccc3)nc3ccccc23)n[nH]1 | 72.5 |
| CCOc1cc2ncnc(Nc3cccc(Br)c3)c2cc1OCC | 58.5 |
| O=c1[nH]c2ccccc2n1C1CCN(Cc2ccc(-c3nc4cc5[nH]cnc5cc4nc3-c3ccccc3)cc2)CC1 | 109 |
| N#CCCc1ccc2c(c1)-c1[nH]c3ccc([N+](=O)[O-])cc3c1CC(=O)N2 | 95.3 |
| O=C(c1ccccc1)c1ccc(N2CCOCC2)cc1O | 98.4 |
| c1ccc(-c2cnc(Nc3ccc(OCCN4CCCC4)cc3)s2)cc1 | 98 |

Each compound was assayed against PAK6 (human) (UniProt Q9NQU5) in the same assay as above. Details: compound 0.5 µM; ATP 10 µM.

| SMILES | residual activity [%] |
| --- | --- |
| Cc1cc(Nc2nc(-c3ccccc3)nc3ccccc23)n[nH]1 | 78.9 |
| CCOc1cc2ncnc(Nc3cccc(Br)c3)c2cc1OCC | 119 |
| O=c1[nH]c2ccccc2n1C1CCN(Cc2ccc(-c3nc4cc5[nH]cnc5cc4nc3-c3ccccc3)cc2)CC1 | 109 |
| N#CCCc1ccc2c(c1)-c1[nH]c3ccc([N+](=O)[O-])cc3c1CC(=O)N2 | 104 |
| O=C(c1ccccc1)c1ccc(N2CCOCC2)cc1O | 93.6 |
| c1ccc(-c2cnc(Nc3ccc(OCCN4CCCC4)cc3)s2)cc1 | 101 |

What follows are compounds tested against MAPK14 (human) (UniProt Q16539) in the same assay as above. Details: compound 0.5 µM; ATP 10 µM.
Chain of MAPK14 (human) (Q16539 whole entry, looked up): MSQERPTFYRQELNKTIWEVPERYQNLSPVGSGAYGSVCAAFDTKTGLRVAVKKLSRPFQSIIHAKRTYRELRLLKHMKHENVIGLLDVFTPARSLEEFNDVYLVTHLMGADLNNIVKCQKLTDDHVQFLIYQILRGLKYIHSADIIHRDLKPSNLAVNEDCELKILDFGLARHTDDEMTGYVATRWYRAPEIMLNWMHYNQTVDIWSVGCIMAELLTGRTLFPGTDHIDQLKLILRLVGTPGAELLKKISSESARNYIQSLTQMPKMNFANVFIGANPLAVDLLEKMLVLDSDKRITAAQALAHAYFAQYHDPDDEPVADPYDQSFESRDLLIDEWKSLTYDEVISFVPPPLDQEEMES

| SMILES | residual activity [%] |
| --- | --- |
| Cc1cc(Nc2nc(-c3ccccc3)nc3ccccc23)n[nH]1 | 103 |
| CCOc1cc2ncnc(Nc3cccc(Br)c3)c2cc1OCC | 87.5 |
| O=c1[nH]c2ccccc2n1C1CCN(Cc2ccc(-c3nc4cc5[nH]cnc5cc4nc3-c3ccccc3)cc2)CC1 | 99.7 |
| N#CCCc1ccc2c(c1)-c1[nH]c3ccc([N+](=O)[O-])cc3c1CC(=O)N2 | 91.8 |
| O=C(c1ccccc1)c1ccc(N2CCOCC2)cc1O | 96.3 |
| c1ccc(-c2cnc(Nc3ccc(OCCN4CCCC4)cc3)s2)cc1 | 103 |

Each compound was assayed against TTK (human) (UniProt P33981) in the same assay as above. Details: compound 0.5 µM; ATP 10 µM.
Chain of TTK (human) (P33981 whole entry, looked up): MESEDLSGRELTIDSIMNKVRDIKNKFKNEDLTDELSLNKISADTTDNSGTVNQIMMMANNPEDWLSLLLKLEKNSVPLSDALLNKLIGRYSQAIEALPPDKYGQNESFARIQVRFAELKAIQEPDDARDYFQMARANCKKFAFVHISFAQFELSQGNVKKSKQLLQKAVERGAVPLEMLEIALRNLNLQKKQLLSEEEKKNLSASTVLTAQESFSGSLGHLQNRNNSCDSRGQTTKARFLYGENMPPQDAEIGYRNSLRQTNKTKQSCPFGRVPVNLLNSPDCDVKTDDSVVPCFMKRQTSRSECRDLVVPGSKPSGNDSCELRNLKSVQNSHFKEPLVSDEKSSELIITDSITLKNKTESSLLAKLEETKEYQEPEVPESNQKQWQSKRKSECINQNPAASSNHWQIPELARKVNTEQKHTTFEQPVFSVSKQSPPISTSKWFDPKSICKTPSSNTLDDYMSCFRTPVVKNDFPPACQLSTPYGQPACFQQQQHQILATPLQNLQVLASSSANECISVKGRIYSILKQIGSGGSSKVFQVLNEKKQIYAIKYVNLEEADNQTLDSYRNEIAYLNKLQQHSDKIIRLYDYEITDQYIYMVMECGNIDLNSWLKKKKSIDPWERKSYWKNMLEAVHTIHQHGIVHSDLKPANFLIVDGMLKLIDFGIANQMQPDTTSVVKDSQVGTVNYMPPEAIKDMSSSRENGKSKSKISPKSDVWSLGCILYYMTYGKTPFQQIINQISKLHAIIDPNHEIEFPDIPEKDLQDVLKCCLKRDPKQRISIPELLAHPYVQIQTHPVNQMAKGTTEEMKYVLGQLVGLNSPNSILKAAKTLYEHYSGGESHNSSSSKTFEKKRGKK

| SMILES | residual activity [%] |
| --- | --- |
| Cc1cc(Nc2nc(-c3ccccc3)nc3ccccc23)n[nH]1 | 102 |
| CCOc1cc2ncnc(Nc3cccc(Br)c3)c2cc1OCC | 91.2 |
| O=c1[nH]c2ccccc2n1C1CCN(Cc2ccc(-c3nc4cc5[nH]cnc5cc4nc3-c3ccccc3)cc2)CC1 | 104 |
| N#CCCc1ccc2c(c1)-c1[nH]c3ccc([N+](=O)[O-])cc3c1CC(=O)N2 | 71.7 |
| O=C(c1ccccc1)c1ccc(N2CCOCC2)cc1O | 104 |
| c1ccc(-c2cnc(Nc3ccc(OCCN4CCCC4)cc3)s2)cc1 | 102 |

Each compound was assayed against MAP3K7 TAB1 (human) (UniProt O43318+Q15750) in the same assay as above. Details: compound 0.5 µM; ATP 10 µM.

| SMILES | residual activity [%] |
| --- | --- |
| Cc1cc(Nc2nc(-c3ccccc3)nc3ccccc23)n[nH]1 | 78.3 |
| CCOc1cc2ncnc(Nc3cccc(Br)c3)c2cc1OCC | 102 |
| O=c1[nH]c2ccccc2n1C1CCN(Cc2ccc(-c3nc4cc5[nH]cnc5cc4nc3-c3ccccc3)cc2)CC1 | 84.1 |
| N#CCCc1ccc2c(c1)-c1[nH]c3ccc([N+](=O)[O-])cc3c1CC(=O)N2 | 38.1 |
| O=C(c1ccccc1)c1ccc(N2CCOCC2)cc1O | 101 |
| c1ccc(-c2cnc(Nc3ccc(OCCN4CCCC4)cc3)s2)cc1 | 102 |

The compounds below were run against PRKG1 (human) (UniProt Q13976) in the same assay as above. Details: compound 0.5 µM; ATP 10 µM.
Chain of PRKG1 (human) (Q13976 whole entry, looked up): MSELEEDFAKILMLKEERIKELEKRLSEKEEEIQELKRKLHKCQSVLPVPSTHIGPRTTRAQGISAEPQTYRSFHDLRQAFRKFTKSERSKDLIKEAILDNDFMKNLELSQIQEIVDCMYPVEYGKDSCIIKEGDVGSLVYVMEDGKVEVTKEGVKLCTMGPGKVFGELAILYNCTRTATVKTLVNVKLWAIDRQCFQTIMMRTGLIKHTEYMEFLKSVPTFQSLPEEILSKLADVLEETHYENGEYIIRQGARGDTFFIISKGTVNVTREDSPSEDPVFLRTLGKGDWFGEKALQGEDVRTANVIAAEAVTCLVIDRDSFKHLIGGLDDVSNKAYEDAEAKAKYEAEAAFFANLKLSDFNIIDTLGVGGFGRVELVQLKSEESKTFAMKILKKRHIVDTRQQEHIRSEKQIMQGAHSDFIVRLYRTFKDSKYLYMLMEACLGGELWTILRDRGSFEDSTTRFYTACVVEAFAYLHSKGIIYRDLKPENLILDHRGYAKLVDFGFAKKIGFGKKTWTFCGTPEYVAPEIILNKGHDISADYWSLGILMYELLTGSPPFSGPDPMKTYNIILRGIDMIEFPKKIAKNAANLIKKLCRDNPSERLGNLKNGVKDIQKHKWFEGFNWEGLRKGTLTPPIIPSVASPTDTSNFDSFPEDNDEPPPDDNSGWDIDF

| SMILES | residual activity |
| --- | --- |
| Cc1cc(Nc2nc(-c3ccccc3)nc3ccccc23)n[nH]1 | 94.9% and 97.3% |
| CCOc1cc2ncnc(Nc3cccc(Br)c3)c2cc1OCC | 96% and 96.7% |
| O=c1[nH]c2ccccc2n1C1CCN(Cc2ccc(-c3nc4cc5[nH]cnc5cc4nc3-c3ccccc3)cc2)CC1 | 101% and 103% |
| N#CCCc1ccc2c(c1)-c1[nH]c3ccc([N+](=O)[O-])cc3c1CC(=O)N2 | 88.4% and 99.3% |
| O=C(c1ccccc1)c1ccc(N2CCOCC2)cc1O | 86.8% and 96.4% |
| c1ccc(-c2cnc(Nc3ccc(OCCN4CCCC4)cc3)s2)cc1 | 96.7% and 100% |

These compounds were tested against DSTYK (human) (UniProt Q6XUX3) in the same assay as above. Details: compound 0.5 µM; ATP 10 µM.

| SMILES | residual activity [%] |
| --- | --- |
| Cc1cc(Nc2nc(-c3ccccc3)nc3ccccc23)n[nH]1 | 86 |
